Test results published in US20250214969A1, “PROTEIN DEGRADERS AND USES THEREOF” (Kymera Therapeutics, Inc., priority 2022, published 2025).

What was measured:
BRD4 = target: T1, BRD4 (Homo sapiens, UniProt O60885); experiment: BRD4 degradation in HEK293 cells (Western blot); type: cell-based; conditions: lysed after 24, Western blot
T1 construct: endogenous in cells; host or cells: HEK293
Description: On day 1, 6.25×10^5 HEK293 cells were seeded per well into a 12-well plate. After 24, cells were lysed in wells with 80 ul of pre-chilled RIPA Lysis buffer (Beyotime, P0013B) with protease/phosphatase inhibitor (Roche 4693116001/Roche 04906837001) for 20 min at 4 degree on a rocker, then spun down at 20,000g at 4 degree for 10 min and the BCA assay was run. 39 ul of supernatant was transferred to a fresh EP tube containing 15 ul of 4X LDS loading buffer and 6 ul 10X reducing agent to make the loading samples. The samples were then heated to 70° C. for 10 minutes, cooled to RT, and stored under−20° C. Samples were loaded with equal amount of protein onto 4-12% Bis -Tris SDS-PAGE 26 wells gel (Novex, WG1403BOX) and the gel was run for 1.5 hours at 120 V. Electrotransfer to NC membrane was completed using wet-transfer method with 250 mA for 80 min and the membrane was blocked in 5% BSA (Solarbio,A8020) with 1X TBST for 1 hour. The samples were incubated with primary antibody prepared in blocking buffer (LI-COR, 927-60001) at 4° C. overnight and the membrane was washed three times with 1X TBST, 5 minutes each. Incubate with secondary antibody for 1 hour at RT (anti-rabbit IgG (Licor,926-32211) 1:5000; anti-mouse IgG (LI-COR, 926-68070)1:5000). The membrance was then washed three times with 1X TBST, 5 minutes each and once with RO H2O, then read on LiCOR.

[1] = target: T2, truncated His-MBP-Tev-KLHDC2 (residues 1-363) (Homo sapiens, UniProt Q9Y2U9); experiment: KLHDC2 HTRF binding assay; conditions: 1 nM KLHDC2 (residues 1-363), fluorescein-labeled diglycine peptide probe
T2 construct: truncated His -MBP-Tev-KLHDC2 (residues 1-363) purified from E. coli; made in house; host or cells: E. coli
T2 sequence (Q9Y2U9 1-363): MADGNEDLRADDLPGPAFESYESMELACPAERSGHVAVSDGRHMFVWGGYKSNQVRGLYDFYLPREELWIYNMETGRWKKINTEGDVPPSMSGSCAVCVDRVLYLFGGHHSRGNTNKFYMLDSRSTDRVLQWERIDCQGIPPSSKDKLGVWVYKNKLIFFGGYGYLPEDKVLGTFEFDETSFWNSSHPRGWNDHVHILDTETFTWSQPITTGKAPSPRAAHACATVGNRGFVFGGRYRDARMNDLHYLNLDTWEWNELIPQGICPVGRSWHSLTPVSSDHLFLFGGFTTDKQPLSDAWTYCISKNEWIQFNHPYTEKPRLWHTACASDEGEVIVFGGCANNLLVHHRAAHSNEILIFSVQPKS

[2] = target: T2, truncated His-MBP-Tev-KLHDC2 (residues 1-363); experiment: KLHDC2 FP competition binding assay; conditions: 15 nM KLHDC2 (residues 1-363), 10 nM fluorescein-labeled diglycine peptide probe, read-out: KLHDC2 binding Human FP: average external IC50

In the case of Cc1sc2c(c1C)C(c1ccc(Cl)cc1)=N[C@@H](CC(=O)NCCCCCCCCCCCCCCN(C(=O)C1CCCN(c3cncc4ccccc34)C1)c1ccc(=O)n(CC(=O)O)c1)c1nnc(C)n1-2 (stereo partly drawn) [I-481], the “KLHDC2-dependent BRD4 degradation” value (BRD4; FIG. 4) is reported as “KLHDC2-dependent BRD4 degradation” and the BRD4 degradation (BRD4; FIGS. 2-3) is reported as “BRD4 degradation”.
Compound CCc1ccccc1C(=O)Nc1ccc(=O)n(CC(=O)O)c1 [I-318] has an IC50 [1] of over 5 µM and an IC50 [2] of over 5 µM.
For Cc1cc(=O)n(CC(=O)O)cc1NC(=O)c1cccc(-c2cccnc2)c1 [I-96], the IC50 [1] was 0.05 to 0.5 µM and the IC50 [2] was 0.5 to 5 µM.
O=C(O)CC(C(=O)n1ccc2ccccc21)c1ccc(=O)n(CC(=O)O)c1 (stereo not drawn) [I-184] gave an IC50 [1] of over 5 µM and an IC50 [2] of over 5 µM.
Work on CCCc1cccc(-c2ccc(=O)n(CC(=O)O)c2)c1 [I-358] yielded an IC50 [1] of over 5 µM and an IC50 [2] of over 5 µM.
In the case of O=C(O)Cn1cc(NC(=O)[C@H]2CCN(c3cccnc3)C2)ccc1=O [I-48], the IC50 [1] is reported as 0.5 to 5 µM and the IC50 [2] is reported as over 5 µM.
For CN(C)C(=O)c1ccc(-c2ccc(=O)n(CC(=O)O)c2)cc1 [I-393], the IC50 [1] was over 5 µM and the IC50 [2] was over 5 µM.
O=C(O)Cn1cc(-c2cccc(C(F)(F)F)c2)ccc1=O [I-381] gave an IC50 [1] of over 5 µM and an IC50 [2] of over 5 µM.
O=C(O)Cn1cc(-c2cncc(CCc3ccccc3)c2)ccc1=O [I-285] was tested, and the IC50 [1] was over 5 µM and the IC50 [2] was over 5 µM.
Work on N#Cc1cc(=O)n(CC(=O)O)cc1NC(=O)[C@H]1CCCN(c2cccnc2)C1 [I-26] yielded an IC50 [1] of 0.05 to 0.5 µM and an IC50 [2] of 0.5 to 5 µM.
Compound CCc1ccc(C(=O)Nc2ccc(=O)n(CC(=O)O)c2)cc1-c1ccccc1 [I-182] has an IC50 [1] of 0.5 to 5 µM and an IC50 [2] of over 5 µM.
In the case of O=C(O)CN1CC(NC(=O)c2cccc(-c3ccccc3)c2)CCC1=O (stereo not drawn) [I-206], the IC50 [1] is reported as over 5 µM and the IC50 [2] is reported as over 5 µM.
CS(=O)(=O)c1cccc(-c2cccc(C(=O)Nc3ccc(=O)n(CC(=O)O)c3)c2)c1 [I-194] was tested, and the IC50 [1] was over 5 µM and the IC50 [2] was over 5 µM.
In the case of O=C(O)Cn1cc(NC(=O)C2CCCc3cc(O)ccc32)ccc1=O (stereo not drawn) [I-245], the IC50 [1] is reported as over 5 µM and the IC50 [2] is reported as over 5 µM.
O=C(O)Cn1cc(NC(=O)c2ccc3ccccc3c2)ccc1=O [I-211] gave an IC50 [1] of 0.5 to 5 µM and an IC50 [2] of over 5 µM.
O=C(O)Cn1cc(NC(=O)c2cccc(-c3cccnc3)c2)c(C(F)(F)F)cc1=O [I-73] gave an IC50 [1] of 0.5 to 5 µM and an IC50 [2] of over 5 µM.
Compound O=C(O)Cn1cc(NC(=O)c2occc2CN2C(=O)Cc3ccccc32)ccc1=O [I-242] has an IC50 [1] of 0.5 to 5 µM and an IC50 [2] of over 5 µM.
O=C(O)Cc1cnn2ccccc12 [I-223] was tested, and the IC50 [1] was over 5 µM and the IC50 [2] was over 5 µM.
Work on O=C(O)CN1CC(NC(=O)c2cccc(-c3cccnc3)c2)CCC1=O (stereo not drawn) [I-86] yielded an IC50 [1] of over 5 µM and an IC50 [2] of over 5 µM.
O=C(O)Cn1cc(NC(=O)COc2ccc(F)cc2)ccc1=O [I-283] showed an IC50 [1] of over 5 µM and an IC50 [2] of over 5 µM.
With O=C(O)CN1CC(NC(=O)c2ccccc2)CCC1=O (stereo not drawn) [I-271] the IC50 [1] was over 5 µM and the IC50 [2] was over 5 µM.
For O=C(O)Cn1cc(C(=O)NCc2ccccc2)ccc1=O [I-373], the IC50 [1] was over 5 µM and the IC50 [2] was over 5 µM.
With O=C(O)Cn1cc(-c2cccc(/C=C/c3ccccc3)c2)ccc1=O [I-296] the IC50 [1] was over 5 µM and the IC50 [2] was over 5 µM.
In the case of Cn1cc(N2CC(C(=O)O)CC2=O)cn1 (stereo not drawn) [I-226], the IC50 [1] is reported as over 5 µM and the IC50 [2] is reported as over 5 µM.
